Source: patent US20190352276A1, “INHIBITORS OF BRUTON'S TYROSINE KINASE” (Joint Stock Company "Biocad", priority 2016, published 2019)
pIC50: −log10 of the molar value. Like-named read-outs stand apart in the source and are kept apart here.

Tests used:
[1] = human, microsomes
Description: 2) Metabolic Stability in Human Liver Microsomes
The rate of enzymatic decomposition of a compound was detected by incubating the reaction mixture in a dry block heater at 37° C.; the reaction mixture contained 0.5 mg/mL of pooled human liver microsomes (XenoTech, USA, cat# H6010), 10 mM of a drug candidate, 2 mM β-nicotinamide adenine dinucleotide (Carbosynth, UK, cat#NN10871) and 4 mM of magnesium chloride in 0.1M sodium phosphate buffer pH=7.4. The reaction was terminated by adding 100 μL of acetonitrile for each 100 μL of the reaction mixture. After the reaction was terminated, the samples were centrifuged for 10 min at 10000 rpm. The supernatant was chromatographed using Agilent 1200 chromatograph (Agilent, USA). We used gradient elution (1 mL/min flow rate). We plotted a calibration curve of the logarithm of the peak area vs. time. The gradient of the line corresponded to the elimination rate constant k. Based on the constant, determined using the curve, we calculated the drug's half-life (T1/2) and metabolism rate (CLint).

[2] = target: T1, recombinant Btk kinase enzyme (Homo sapiens, UniProt Q06187); test: In vitro inhibition of Btk kinase activity (ADP-Glo); type: biochemical; details: read-out: IC50 kinase BTK
T1 construct: purchased SignalChem B10-10H
Outline: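 Recombinant human Btk phosphorylating Poly(Glu,Tyr 4:1) substrate (0.5 mg/mL) with 50 μM ATP, 180 min at 37° C., in presence of inhibitor. ADP formed detected by ADP-Glo luminescence; IC50 from four-parameter logistic fit.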

[3] = General cytotoxicity on HepG2 cells (CC50; therapeutic index CC50 HepG2/IC50 Mino); type: cell-based; details: human, HepG2 cells (hepatocellular carcinoma), 72 hours, Alamar Blue
Outline: (§1)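 Cells seeded at 2*10^4 per well in DMEM, compounds added after 24 h at 200 μM to 4 μM final and incubated 72 h. Viability read with Alamar Blue to derive CC50; therapeutic index is CC50 (HepG2) divided by IC50 (Mino).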

[4] = system: HepG2 cells (hepatocellular carcinoma); test: as above; type: cell-based; details: therapeutic index
Outline: as §1

EGFR = target: T2, EGFR (Homo sapiens, UniProt P00533); test: In vitro kinase panel: EGFR; type: biochemical; details: Table 9 kinase panel
T2 construct: purchased SignalChem E10-11G
Description: The measurements were carried out in a 25 μL reaction volume using a 96-well plate (Corning, #3642). The kinase enzyme and inhibitor were pre-incubated for 10 minutes in the reaction buffer containing 25 mM of MOPS (pH 7.2), 12.5 mM of 0-glycerophosphate, 27 mM of MgCl2, 2 mM of MnCl2, 5 mM of EGTA, 2 mM of EDTA, 0.3 mM of DTT, and 1.2 mg/mL of bovine serum albumin. Staurosporine (Abcam Biochemicals, ab146588) was used as a reference inhibitor and 0.1% DMSO in the reaction buffer—as a negative control. The solution of 0.5 mg/mL peptide substrate and 50 &M ATP in the same buffer were added; the solution was incubated for 180 minutes at 37° C. To detect the amount of ATP taken up during the kinase reaction, the equivalent amount of ADP (from the ADP Glo Detection Kit (Promega, #V9101)) was used according to the protocol. The reaction mixture was equilibrated to room temperature. 25 µL of ADP-Glo Reagent were added into each well; the plate was incubated for 40 minutes. 50 μL of Kinase Detection Reagent were added; the plate was incubated for 30 minutes. The luminescence was measured with multimode plate reader (Tecan Infinite M200Pro, Switzerland). IC50 values were calculated using Magellan 7.2 software (Tecan, Switzerland) approximating experimental points by four-parameter logistic model with the optimization by Levenberg-Marquardt.
For active compounds selected by screening using the target enzyme BTK, the values of IC50 were determined on a kinase panel: EGFR (SignalChem, #E10-11G), ITK (SignalChem, #I13-10G) and TEC (SignalChem, #T03-10G).

[5] = system: Z-138 (mantle cell lymphoma); test: Antiproliferative activity, Z-138 cells (Alamar Blue); type: cell-based; details: Homo sapiens
Outline: (§2)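 After at least one passage post-thaw, cells were seeded at ≈3*10^4 per well in RPMI-1640 containing 10% FBS. They were treated with compound dilutions (DMSO under 1%) for 72 h and then with Alamar Blue for 14-16 h. Living-cell fluorescence at 540/590 nm gave IC50 values through logistic fitting.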

[6] = system: Mino (mantle cell lymphoma); test: Antiproliferative activity, Mino cells (Alamar Blue); type: cell-based; details: Homo sapiens
Outline: as §2

[7] = Permeability through the monolayer of Caco-2 cells; type: in vitro ADME; details: human; for Papp A→B at 2 h, 10 μM / Papp B→A at 2 h, 10 μM: 2 h at 37° C.; for efflux ratio at 2 h, 10 μM: read-out: efflux (Papp B-A/Papp A-B)
Outline: (§3)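 Caco-2 monolayers grown 21 days on 0.4 μm transwell filters, integrity checked with Lucifer Yellow. Compounds at 10 μM were added apically at pH 6.5 (A→B) or basolaterally at pH 7.4 with 1% BSA (B→A) and sampled after 2 h. Concentrations by HPLC; Papp calculated, efflux ratio as Papp B-A/Papp A-B.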

Caco-2 cells = test: Permeability through the monolayer of Caco-2 cells; type: in vitro ADME
Outline: as §3

[8] = system: DOHH2 (follicular lymphoma); test: Antiproliferative activity, DOHH2 cells (Alamar Blue); type: cell-based; details: Homo sapiens, DOHH-2, Table 10, 72 h, average of several tests
Outline: as §2

[9] = Chemical stability in artificial gastric fluid (SGF without enzymes); details: 10 μM in SGF without enzymes, pH=1.4, 37° C.
[10] = Stability in human blood plasma; details: 10 μM in pooled human blood plasma, incubated 4 hours at 37° C.
Description: To assess the blood plasma stability of the drug candidates, we used pooled human blood plasma taken from ten healthy donors. The initial solution (10 Mm in DMSO) was diluted with pooled blood plasma to 10 μM (test solution). The test solution had been incubated for 4 hours in a dry block heater at 37° C. We determined peak areas of the compounds corresponding to the start of the test (before incubating) and the end of the test (after incubating in a dry block heater at 37° C.) by HPLC using Agilent1200 chromatograph (Agilent, USA) with preliminary protein precipitation with acetonitrile. We used gradient elution (1 mL/min flow rate). We determined amount of substance in the sample in % after incubation.
We evaluated the stability of the compounds.

[11] = Table 10, average of several tests
[12] = Table 10, 72 h, average of several tests

T1 sequence (Q06187 whole entry): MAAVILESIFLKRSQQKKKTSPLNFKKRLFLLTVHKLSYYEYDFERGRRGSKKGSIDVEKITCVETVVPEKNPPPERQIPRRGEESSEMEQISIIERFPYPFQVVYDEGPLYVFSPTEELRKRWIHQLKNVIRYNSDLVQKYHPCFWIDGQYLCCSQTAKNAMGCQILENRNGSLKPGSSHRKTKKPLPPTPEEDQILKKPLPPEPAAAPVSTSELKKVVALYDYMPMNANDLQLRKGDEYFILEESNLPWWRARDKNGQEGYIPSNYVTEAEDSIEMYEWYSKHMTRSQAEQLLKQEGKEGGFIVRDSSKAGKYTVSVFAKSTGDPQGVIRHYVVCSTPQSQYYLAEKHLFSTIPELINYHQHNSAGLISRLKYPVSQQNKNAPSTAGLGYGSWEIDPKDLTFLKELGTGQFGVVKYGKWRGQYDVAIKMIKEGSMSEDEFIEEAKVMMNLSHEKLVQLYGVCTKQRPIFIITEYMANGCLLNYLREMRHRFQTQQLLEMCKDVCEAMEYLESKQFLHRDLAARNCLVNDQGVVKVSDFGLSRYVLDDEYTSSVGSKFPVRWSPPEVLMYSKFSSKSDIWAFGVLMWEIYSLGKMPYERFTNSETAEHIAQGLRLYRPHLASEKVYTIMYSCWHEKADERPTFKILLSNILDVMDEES
T2 sequence (P00533 672-1210 limits assumed): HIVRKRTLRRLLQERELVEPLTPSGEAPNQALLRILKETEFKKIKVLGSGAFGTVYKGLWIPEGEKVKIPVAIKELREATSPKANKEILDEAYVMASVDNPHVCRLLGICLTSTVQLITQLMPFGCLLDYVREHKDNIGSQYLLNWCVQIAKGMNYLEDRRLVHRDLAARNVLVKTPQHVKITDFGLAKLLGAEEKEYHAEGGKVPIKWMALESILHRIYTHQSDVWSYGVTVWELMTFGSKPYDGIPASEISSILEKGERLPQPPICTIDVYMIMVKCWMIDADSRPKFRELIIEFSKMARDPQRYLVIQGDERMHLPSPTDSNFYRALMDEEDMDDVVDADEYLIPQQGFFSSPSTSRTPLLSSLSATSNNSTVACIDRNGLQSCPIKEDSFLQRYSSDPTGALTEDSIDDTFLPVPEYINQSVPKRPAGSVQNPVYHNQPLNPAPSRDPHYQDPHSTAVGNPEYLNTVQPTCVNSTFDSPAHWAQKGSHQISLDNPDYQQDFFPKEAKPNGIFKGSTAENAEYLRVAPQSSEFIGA

Structure (SMILES) | Clint (microsome metabolic stability) [1] [µL/min/mg] | pIC50 ([2]; Table 9 kinase panel) | CC50 at 72 h ([3]; Table 11) [µM] | CC50 (HepG2)/IC50 (Mino) ([4]; Table 11) | pIC50 (EGFR) | pIC50 ([5]; Table 11, 72 h) | pIC50 ([6]; Table 11, 72 h) | Papp A→B at 2 h, 10 μM [7] [×10⁻⁶ cm/s] | Papp B→A at 2 h, 10 μM [7] [×10⁻⁶ cm/s] | efflux ratio at 2 h, 10 μM [7] | efflux (Papp B-A/Papp A-B) (Caco-2 cells) | pIC50 [8] | pIC50 ([2]; Table 8, ADP-Glo) | CC50 at 72 h [3, 11] [µM] | CC50 (HepG2)/IC50 (Mino) ([4]; Table 10) | pIC50 [5, 12] | pIC50 [6, 12] | Amount of substance in the sample in % (chemical stability) [9] [%] | Amount of substance in the sample, % (stability in human blood plasma) [10] [%]
C=CC(=O)N1CCC[C@@H](n2nc(-c3ccc(Oc4ccncc4)cc3)c3c(N)nccc32)C1 [BCD-BTK -241, (R)-1-(1-acryloylpiperidin-3-yl)-4-amine-3-(4-(pyridin-4-yloxy)phenyl)-1H-pyrazolo[4,3-c]pyridine] | 27.4 | – | – | – | – | – | – | – | – | – | – | – | – | – | – | – | – | – | –
C=CC(=O)N1CCC[C@@H](n2nc(-c3ccc(Oc4ccncc4)cc3)c3c(N)ncc(C#N)c32)C1 [BCD-BTK-134, (R)-1-(1-acryloylpiperidin-3-yl)-4-amino-3-(4-(pyridin-4-yloxy)phenyl)-1H-pyrazolo[4,3-c]pyridin-7-carbonitrile] | – | 8.94 | 64 | 5.80 | 6.90 | 4.67 | 4.94 | 25.8 | 12 | 0.4 | – | – | – | – | – | – | – | – | –
C=CC(=O)N1CCC[C@@H](n2nc(-c3ccc(C(=O)Nc4cc(C(F)(F)F)ccn4)cc3)c3cncc(Cl)c32)C1 [BCD-BTK-210, (R)-4-(1-(1-acryloylpiperidin-3-yl)-7-chloro-1H-pyrazolo[4,3-c]pyridin-3-yl)-N-(4-(trifluoromethyl)pyridin-2-yl)benzamide] | – | – | – | – | – | – | – | 11.9 | 0.21 | – | 0.02 | – | – | – | – | – | – | – | –
C=CC(=O)N1CCC[C@@H](n2nc(-c3ccc(C(=O)Nc4cc(C(F)(F)CC)ccn4)cc3)c3cncc(F)c32)C1 [BCD-BTK-214, (R)-4-(1-(1-acryloylpiperidin-3-yl)-7-fluoro-1H-pyrazolo[4,3-c]pyridin-3-yl)-N-(4-(1,1-difluoropropyl)pyridin-2-yl)benzamide] | – | – | – | – | – | – | – | 17.8 | 0.87 | – | 0.05 | < 4.00 | 7.46 | > 100 | >77.94 | 4.05 | 5.89 | – | –
C=CC(=O)N1CCC[C@@H](n2nc(-c3ccc(C(=O)Nc4cccc(F)n4)cc3)c3cncc(C#N)c32)C1 [BCD-BTK-223, 4-{7-cyano-1-[(3R)-1-(prop-2-enoyl)piperidin-3-yl]-1H-pyrazolo[4,3-c]pyridin-3-yl}-N-(6-fluoropyridin-2-yl)benzamide] | – | – | – | – | – | – | – | 5.9 | 0.3 | – | 0.05 | – | – | – | – | – | – | 96.7 | –
C=CC(=O)N1CCC[C@@H](n2nc(-c3cnc(C(=O)Nc4ccccn4)nc3)c3cncc(Cl)c32)C1 [BCD-BTK-229, (R)-5-(1-(1-acryloylpiperidin-3-yl)-7-chloro-1H-pyrazolo[4,3-c]pyridin-3-yl)-N-(pyridin-2-yl)pyrimidine-2-carboxamide] | – | – | – | – | – | – | – | 10.7 | 12.2 | 1.14 | – | 4.38 | 7.36 | > 100 | >2.75 | 4.11 | 4.44 | 99.8 | 83.5
C=CC(=O)N1CCC[C@@H](n2nc(-c3ccc(Oc4cccnc4C#N)cc3)c3c(N)ncc(Cl)c32)C1 [BCD-BTK-236, 3-(4-{4-amino-7-chloro-1-[(3R)-1-(prop-2-enoyl)piperidin-3-yl]-1H-pyrazolo[4,3-c]pyridin-3-yl}phenoxy) pyridine-2-carbonitrile] | – | – | – | – | – | – | – | 6.51 | 2.87 | 0.44 | – | 5.42 | 7.76 | 27.1 | 3.03 | 4.95 | 5.05 | 100 | 96.8
C=CC(=O)N1CCC[C@@H](n2nc(-c3ccc(Oc4ccncc4)cc3)c3c(N)nccc32)C1 [BCD-BTK-241, (R)-1-(1-acryloylpiperidin-3-yl)-4-amine-3-(4-(pyridin-4-yloxy)phenyl)-1H-pyrazolo[4,3-c]pyridine] | – | – | – | – | 7.60 | – | – | – | – | – | – | 4.94 | 8.00 | 45.4 | 2.13 | 4.81 | 4.67 | – | –
C=CC(=O)N1CC[C@H](n2nc(-c3ccc(Oc4ccncc4)cc3)c3cncc(Cl)c32)C1 [BCD-BTK-266, (S)-1-(3-(7-chloro-3-(4-(pyridin-4-yloxy)phenyl)-1H-pyrazolo[4,3-c]pyridin-1-yl)pyrrolidin-1-yl)prop-2-en-1-one] | – | – | – | – | – | – | – | 9.5 | 2.2 | 0.23 | – | 5.30 | 7.88 | 12 | 3.33 | 4.90 | 5.44 | 100 | 87.2
C=CC(=O)N1CCC[C@@H](n2nc(-c3cnc(C(=O)Nc4cc(C(F)(F)CC)ccn4)nc3)c3cncc(Cl)c32)C1 [BCD-BTK-293, (R)-5-(1-(1-acryloylpiperidin-3-yl)-7-chloro-1H-pyrazolo[4,3-c]pyridin-3-yl)-N-(4-(1,1-difluoropropyl)pyridin-2-yl)pyrimidine-2-carboxamide] | – | – | – | – | – | – | – | 6.17 | 0.37 | – | 0.06 | < 4.00 | – | > 100 | >23.23 | < 4.30 | 5.37 | – | –
